Test results: PubChem BioAssay (NCI)
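Following 48 hours of exposure in 96-well plates, responses at five concentrations were used to interpolate endpoints linearly. TGI: total growth inhibition.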

Key:
Test in all cases: DTP human tumour cell line panel, 48 h
[1] = test system: OVCAR-5 ovarian
[2] = test system: 786-0 renal
[3] = test system: SNB-75 CNS
[4] = test system: HOP-18 NSCLC
[5] = test system: SNB-19 CNS
[6] = test system: MALME-3M melanoma
[7] = test system: ACHN renal
[8] = test system: HL-60(TB) leukemia
[9] = test system: RPMI-8226 leukemia
[10] = test system: U251 CNS
[11] = test system: SK-OV-3 ovarian
[12] = test system: HCT-116 colon
[13] = test system: UACC-257 melanoma
[14] = test system: LOX IMVI melanoma
[15] = test system: DLD-1 colon
[16] = test system: EKVX NSCLC
[17] = test system: OVCAR-3 ovarian
[18] = test system: CCRF-CEM leukemia
[19] = test system: DMS 114 small cell lung
[20] = test system: RXF-631 renal
[21] = test system: MOLT-4 leukemia
[22] = test system: KM20L2 colon
[23] = test system: IGROV1 ovarian
[24] = test system: HOP-92 NSCLC
[25] = test system: SF-539 CNS
[26] = test system: NCI-H23 lung
[27] = test system: HT29 colon
[28] = test system: OVCAR-8 ovarian
[29] = test system: KM12 colon
[30] = test system: OVCAR-4 ovarian
[31] = test system: SK-MEL-5 melanoma
[32] = test system: A549 NSCLC
[33] = test system: HOP-62 NSCLC
[34] = test system: TK-10 renal
[35] = test system: UACC-62 melanoma
[36] = test system: NCI-H226 lung
[37] = test system: LXFL 529 NSCLC
[38] = test system: A498 renal
[39] = test system: SW-620 colon
[40] = test system: HCC-2998 colon
[41] = test system: NCI-H460 lung
[42] = test system: M14 melanoma
[43] = test system: M19-MEL melanoma
[44] = test system: RXF 393 renal
[45] = test system: HCT-15 colon
[46] = test system: SF-268 CNS
[47] = test system: XF 498 CNS
[48] = test system: SF-295 CNS
[49] = test system: SN12C renal
[50] = test system: CAKI-1 renal
[51] = test system: UO-31 renal
[52] = test system: K-562 leukemia
[53] = test system: SK-MEL-28 melanoma
[54] = test system: COLO 205 colon
[55] = test system: NCI-H522 lung
[56] = test system: SR leukemia
[57] = test system: DMS 273 small cell lung
[58] = test system: SK-MEL-2 melanoma

With `N#CC(/C(CCCC(=O)Nc1cccc([N+](=O)[O-])c1)=N/NC(=O)c1cc2ccccc2cc1O)c1ccccc1` (stereo not given) the TGI [1] was > 100 µM, the TGI [2] was 96.3 µM and the TGI [3] was > 100 µM. For the same compound, the TGI [4] was > 100 µM, the TGI [5] was > 100 µM and the TGI [6] was > 100 µM. The TGI [7] was > 100 µM, the TGI [8] was 48.7 µM and the TGI [9] was > 100 µM. For the same compound, the TGI [10] was > 100 µM, the TGI [11] was > 100 µM and the TGI [12] was > 100 µM. The TGI [13] was 98.5 µM, the TGI [14] was 49.4 µM and the TGI [15] was > 100 µM. The TGI [16] was > 100 µM, the TGI [17] was > 100 µM and the TGI [18] was 43.3 µM. The TGI [19] was 45.5 µM, the TGI [20] was > 100 µM and the TGI [21] was > 100 µM. The TGI [22] was > 100 µM, the TGI [23] was > 100 µM and the TGI [24] was 95.9 µM. For the same compound, the TGI [25] was 72.5 µM, the TGI [26] was 61.5 µM and the TGI [27] was > 100 µM. The TGI [28] was > 100 µM, the TGI [29] was > 100 µM and the TGI [30] was > 100 µM. The TGI [31] was 40.8 µM, the TGI [32] was > 100 µM and the TGI [33] was > 100 µM. For the same compound, the TGI [34] was > 100 µM, the TGI [35] was 45 µM and the TGI [36] was > 100 µM. For the same compound, the TGI [37] was > 100 µM, the TGI [38] was 92.8 µM and the TGI [39] was > 100 µM. The TGI [40] was > 100 µM, the TGI [41] was > 100 µM and the TGI [42] was 39.6 µM. For the same compound, the TGI [43] was 34.9 µM, the TGI [44] was 72.3 µM and the TGI [45] was > 100 µM. For the same compound, the TGI [46] was > 100 µM, the TGI [47] was 63 µM and the TGI [48] was > 100 µM. The TGI [49] was > 100 µM, the TGI [50] was > 100 µM and the TGI [51] was > 100 µM. The TGI [52] was > 100 µM, the TGI [53] was > 100 µM and the TGI [54] was 46.9 µM. The TGI [55] was 56.9 µM and the TGI [56] was > 100 µM.

In the case of `COc1cccc(/C=C2\CCC(CCN(C)C)(C3=CCCC3)C2=O)c1` (stereo not given), the TGI [1] is reported as 28.1 µM, the TGI [2] is reported as 27.9 µM and the TGI [3] is reported as 35 µM. For the same compound, the TGI [4] was 27.2 µM, the TGI [5] was 31.1 µM and the TGI [6] was 31.2 µM. The TGI [7] was 30.5 µM, the TGI [9] was 41.7 µM and the TGI [10] was 30.6 µM. The TGI [12] was 27.7 µM, the TGI [13] was 28.8 µM and the TGI [14] was 30.2 µM. For the same compound, the TGI [15] was 36.4 µM, the TGI [17] was 34 µM and the TGI [18] was 40.8 µM. It also gave a TGI [19] of 31.4 µM, a TGI [20] of 43.4 µM and a TGI [21] of 34.1 µM. For the same compound, the TGI [23] was 32.5 µM, the TGI [24] was 28.6 µM and the TGI [25] was 29.7 µM. The TGI [26] was 41.4 µM, the TGI [27] was 29.2 µM and the TGI [28] was 32.1 µM. For the same compound, the TGI [29] was 31 µM, the TGI [30] was 30.5 µM and the TGI [31] was 32.4 µM. For the same compound, the TGI [57] was 28 µM, the TGI [32] was 32.6 µM and the TGI [33] was 32 µM. The TGI [34] was 29.3 µM, the TGI [35] was 30 µM and the TGI [36] was 31.2 µM. It also gave a TGI [37] of 28.9 µM, a TGI [38] of 30.8 µM and a TGI [39] of 27.1 µM. The TGI [40] was 30.4 µM, the TGI [41] was 29.9 µM and the TGI [42] was 27.4 µM. The TGI [43] was 30 µM, the TGI [44] was 21.7 µM and the TGI [45] was 31.1 µM. For the same compound, the TGI [46] was 45.6 µM, the TGI [47] was 31.9 µM and the TGI [48] was 31.1 µM. The TGI [49] was 28.6 µM, the TGI [50] was 25.2 µM and the TGI [51] was 26.5 µM. For the same compound, the TGI [52] was 36 µM, the TGI [53] was 31.3 µM and the TGI [54] was 21.3 µM. The TGI [55] was 26.9 µM, the TGI [56] was 57.4 µM and the TGI [58] was 29.9 µM.
